Entries after “also recorded” stand apart in the source; their conditions may differ.

Series [1] deals with U-87 cells (a human glioblastoma). The series is described as follows: In vivo test, U-87 cells grafted onto nude/nude SWISS mice. Conditions: 18.5 mg/Kg intraperitoneally per injection, accumulated dose 185 mg/Kg. The protocol: The animals are manipulated under a laminar flow hood. Ten nude/nude (athymic) eleven week old SWISS mice were grafted subcutaneously with U-87 cells (a human glioblastoma) on the left thigh. After 7 days, the tumours become apparent and treatment commences. The animals are separated into two groups of five, 5 mice are thus treated with D-PBS (control mice) and the 5 others with RDC-11 (treated mice).
For the treated mice, 2 mg of RDC-11 placed in solution in 4 mL hot D-PBS for each injection. 0.5 mL of this solution cooled down to ambient temperature is administered intraperitoneally to each mouse. For the control mice, 0.5 mL D-PBS at ambient temperature is administered in the same way.
The dose of RDC-11 injected is 18.5 mg/Kg mouse. The accumulated dose is therefore 185 mg/Kg.
The development of the apparent tumours was followed by measuring them with calipers, by weighing the mice and by scanning one mouse from each batch with a CT-scan after injecting a contrast product (Fenestra VC). The mice were individualised by a mark on the ear.
The volume of the apparent tumours was calculated according to the formula:
V=(4/3)*π*(L/2)*(I/2)^2 where L is the length and I the width measured.

A further series concerns TK6 and NH32 lines. The series is described as follows: Compared proliferation of lines TK6 and NH32. Type of series: cell-based, human. The protocol:
The influence of the p53 protein upon the effects induced by the products was determined by using the human lymphoblastoid line TK6 (p53 wild-type) and its NH32 variant of which the p53 gene was totally inactivated by double homologous recombination (Chuang et al, 1999). The TK6 cells originate from the American Tissue Culture Collection (ATGC, Manassas, Va., USA). The NH32 cells were supplied by H. L. Liber (Chuang et al, 1999).
(§1) All of these cells are cultivated in RPMI 1640-Glutamax, supplemented by 10% calf foetal serum heat inactivated at 56° C. for 30 minutes, 1 mM sodium pyruvate, 1 mM non-essential amino acids and 50 μg/mL gentamycine (Life Technologies, Cergy Pontoise, France). The cultures are kept in an incubator at 37° C. with a moisture saturated atmosphere, with 5% CO2.
(§2) This test uses the UptiBlue reagent (Interchim, Montluçon, France), metabolised by the living cells. The cells are incubated on plates with 96 wells with 10^4 cells/well (200 μL) with the product and cultivated for 72 hours. Then, 20 μL UptiBlue are added to each well. After 3 hours incubation, the fluorescence of the samples contained in the plates is measured at 590 nm (excitation at 560 nm), using a Fluorolite 1000 microplate reader (Dynex technologies, Issy-Les-Moulineaux, France). […]

A further series deals with RDM4 cells. Briefly: Chemo-radiotherapeutic association on RDM4 cells (cell counting, propidium iodure apoptosis). Type of series: cell-based, mouse. Conditions: for proliferation of RDM4 cells, compound plus ionising radiation: 4 Gy rapid neutrons plus compound 11 (10 μM); for proliferation of non-irradiated RDM4 cells (cell counting): cisplatinum 0.7 μM, ruthenium derivative 10 μM, no irradiation. The protocol: Cells of this same line are treated with concentrations of 0.7 μM cisplatinum and 15 μM complex 11. 24 hours after the start of the treatment, the cells are irradiated at 4 Gy with rapid neutrons. The effects of the chemo-radiotherapeutic association are then determined by simple cell counting, measuring the concentration of cells in the medium during treatment 24 hrs, 72 hrs and 168 hrs after irradiation.
Evaluation of the effects of a combined “ionising radiation+RDC-11” treatment upon proliferation and survival of the RDM4 murine cells. These cells originate from an AKR mouse lymphoma. The different tests were carried out in vitro, and five independent experiments were carried out.
The radiations used were rapid neutrons originating from the collision of 65 MeV protons on a Beryllium target (produced at the Cyclotron, Louvain la Neuve (LLN) in Belgium). The results of just one of these experiments which is representative of a set of three experiments carried out with this type of radiation are shown.
The RDM4 cells are adjusted to 50,000 cells/ml, in RPMI 1640 culture medium to which 10% foetal calf serum is added. 4 25 cm2 culture flasks are filled with cell suspension, at the rate of 10 ml/flask, i.e. 500,000 cells/flask.
Four flasks are prepared thus, each corresponding to a different experimental group: • Group 1: non-irradiated, untreated cells (Et/NI in FIG. 9) • Group 2: non-irradiated cells, treated with RDC-11 (RDC-11/NI in FIG. 9) • Group 3: irradiated, non-treated cells (Et/4 Gy in FIG. 9) • Group 4: irradiated cells, treated with RDC-11 (RDC-11/4 Gy in FIG. 9)
RDC-11, prepared from an ethanolic solution, is added to the cells (flask 2 and 4) 6 hours before irradiation. An identical volume of ethanol (Et, 66 μl) is added to flasks 1 and 3. The final concentration of RDC-11 is 10 μM, and the medium is not replaced over the 9 days of the experiment.
Flasks 3 and 4 are irradiated with 4 Gy, at ambient temperature, then returned to culture at 37° C.
On the days following irradiation, aliquots of cell suspensions are regularly taken. The number of cells is determined using a Coulter Counter. Other cells are fixed in ethanol, then marked with propidium iodure, in order to determined the percentage apoptosis.

In the next series the test system is HL-60. Briefly: Proliferation test (UptiBlue) on HL-60. Type of series: cell-based, human. The protocol:
(§3) The products are tested on different cell lines. The cells used are RDM4 from a murine T lymphoma and a MOLT-4 line originating from an acute lymphoblastic leukemia. These cancer lines both express the p53 protein, unlike the HL-60 cells from a human promyelocytary leukemia where, following deletion of its gene, p53 is absent.
as §1
This test uses the UptiBlue reagent (Interchim, Montluçon, France), metabolised by the living cells. The cells are incubated on plates with 96 wells with 10^4 cells/well (200 μL) with the product and cultivated for 72 hours. Then, 20 μL UptiBlue are added to each well. After 3 hours incubation, the fluorescence of the samples contained in the plates is measured at 590 nm (excitation at 560 nm), using a Fluorolite 1000 microplate reader (Dynex technologies, Issy-Les-Moulineaux, France).
This sensitivity is reversed with the Ru complex. […] These latter, which have a normal p53 gene, are less sensitive to the Ru complex. […]

For the next series, the system named is MOLT-4. The series is described as follows: Proliferation test (UptiBlue) on MOLT-4. Type of series: cell-based, human. The settings on record: p53 expressing line; read-out: IC50, proliferation of MOLT-4 cells. The protocol:
as §3, §1, §2

Regarding “[Ru(C6H4-2-C5H4N)(phen)(NCMe)2]PF6 [Compound 11]”, the “toxicity in grafted mice” value in series [1] is on record as “without any toxicity”. The “weight and volume of the tumours / tumoral growth” value in series [1] (listed as RDC-11) is “less in relation to the controls; also recorded: changes the nature of tumoral growth”. Further, the “proliferation of TK6 (p53 wild-type) compared with NH32 (p53-/-)” value in the series on TK6 and NH32 lines is “can be superposed”. In the series on RDM4 cells, the “proliferation of RDM4 cells, compound plus ionising radiation” value was “cell proliferation practically zero” and the “proliferation of non-irradiated RDM4 cells (cell counting)” value is “negligible”. The “proliferation of RDM4 cells, compound plus ionising radiation” value in the series with RDM4 cells (listed as RDC-11) was “cell growth is significantly slowed down”. For the same molecule, the “effect of the combination with irradiation” value with RDM4 cells (RDC-11 10 μM plus 4 Gy) is recorded as “supra-additive effect”. The “percentage of cells in apoptosis (propidium iodure), co-treatment” value in the series on RDM4 cells (RDC-11 10 μM plus 4 Gy, three days after start) is “greater than the sum of treatments taken separately”. For the same molecule, in the series on HL-60 (p53-deficient HL-60 vs MOLT-4 with normal p53), the “growth inhibition, HL-60 compared with MOLT-4” value was “more significant for HL-60s than for MOLT-4s”.

Turning to `N.N.[Cl][Pt][Cl]` [Cisplatinum, reference compound], the “proliferation of TK6 (p53 wild-type) compared with NH32 (p53-/-)” value in the series with TK6 and NH32 lines is “more significant effect upon the p53+/+ cells than upon the p53-deficient cells”. For the same molecule, the results for the IC50 in the series with MOLT-4 and in the series on HL-60 (p53-deficient line) were under 500 nM and 1000 nM, respectively. In addition, in the series with RDM4 cells, the “proliferation of non-irradiated RDM4 cells (cell counting)” value is “inhibits proliferation more effectively than the ruthenium derivative”.

The values are drawn from patent US8193175B2, “Ruthenium complexes for treating cancers” (Universite de Strasbourg, priority 2004, dated 2012).
